Kd and IC50 data for one molecule are collected here from PMC10477891, “Celastrol Combats Methicillin‐Resistant Staphylococcus aureus by Targeting Δ^1‐Pyrroline‐5‐Carboxylate Dehydrogenase” (Advanced Science, 2023).

The target of assay [1] is T1, P5CDH (Δ1-pyrroline-5-carboxylate dehydrogenase) (Staphylococcus aureus, UniProt Q2FDV3).
T1 construct: gene rocA
T1 sequence (Q2FDV3 1-514): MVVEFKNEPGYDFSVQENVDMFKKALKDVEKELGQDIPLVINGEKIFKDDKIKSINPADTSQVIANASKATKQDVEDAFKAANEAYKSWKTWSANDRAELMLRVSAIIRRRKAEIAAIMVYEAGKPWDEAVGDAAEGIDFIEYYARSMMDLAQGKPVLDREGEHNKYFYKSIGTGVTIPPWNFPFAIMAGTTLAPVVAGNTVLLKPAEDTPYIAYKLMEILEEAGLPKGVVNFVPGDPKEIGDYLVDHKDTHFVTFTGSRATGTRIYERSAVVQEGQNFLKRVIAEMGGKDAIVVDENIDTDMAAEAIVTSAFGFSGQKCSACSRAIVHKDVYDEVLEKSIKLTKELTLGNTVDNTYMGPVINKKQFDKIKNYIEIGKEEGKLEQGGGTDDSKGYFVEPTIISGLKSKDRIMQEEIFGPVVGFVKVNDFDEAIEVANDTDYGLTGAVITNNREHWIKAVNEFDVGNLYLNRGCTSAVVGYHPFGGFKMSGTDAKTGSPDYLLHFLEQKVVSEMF
Kind of assay: bio-layer interferometry (Octet NTA, immobilised P5CDH). Format: binding.

Assay [2] has as its target T1, P5CDH (Δ1-pyrroline-5-carboxylate dehydrogenase). Kind of assay: P5CDH activity kit (FT-M52211). Type of assay: biochemical.

The molecule `CC1=C(O)C(=O)C=C2C1=CC=C1[C@@]2(C)CC[C@@]2(C)[C@@H]3C[C@](C)(C(=O)O)CC[C@]3(C)CC[C@]12C` [celastrol] returned a Kd in assay [1] of 55 µM. Further, in assay [2], the IC50 is 10.9 µM.

The Kd is the free concentration of one partner at which half of the binding sites on the other are occupied at equilibrium, for simple one-to-one binding. In general, IC50 refers to the concentration needed to halve the response being measured. A lower IC50 goes with greater potency in that assay.
